Data on 6 compounds can be found in patent US20230180804A1, “FLAVOR COMPOSITION, AND FOOD AND BEVERAGE” (TAKASAGO INTERNATIONAL CORPORATION, priority 2020, published 2023).

One experiment deals with T1, olfactory receptor OR9Q2 (Homo sapiens, UniProt Q8NGE9).
T1 construct: 20 N-terminal amino acid residues of bovine rhodopsin (Rho tag); expressed in transfected cells; host or cells: HEK293T
T1 sequence (Q8NGE9 1-314): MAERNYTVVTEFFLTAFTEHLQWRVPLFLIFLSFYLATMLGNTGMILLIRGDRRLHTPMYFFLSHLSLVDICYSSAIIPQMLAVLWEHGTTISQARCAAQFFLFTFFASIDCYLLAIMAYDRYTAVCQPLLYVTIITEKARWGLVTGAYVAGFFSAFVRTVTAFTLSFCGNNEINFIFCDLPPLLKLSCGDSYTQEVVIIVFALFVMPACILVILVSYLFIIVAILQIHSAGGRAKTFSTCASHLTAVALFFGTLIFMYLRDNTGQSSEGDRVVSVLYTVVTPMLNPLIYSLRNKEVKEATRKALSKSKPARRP
The experiment can be described thus: OR9Q2 response inhibitory effect for p-cresol, luciferase reporter gene assay. Type of experiment: cell-based. As to conditions: p-cresol 100 µM mixed with various concentrations of compound; cells expressing OR9Q2; ratio of Fold Increase value (FIGS. 1 to 11). Here is the method: The human olfactory receptor gene was obtained by cloning from Human Genomic DNA: Female (Promega) by PCR method based on the sequence information registered in GenBank. The 20 N-terminal amino acid residues of bovine rhodopsin were incorporated into the pME18S vector, and the obtained human olfactory receptor gene was incorporated downstream thereof to obtain a human olfactory receptor gene expression vector.
In 10 µL of Opti-MEM I (gibco), 0.05 µg of human olfactory receptor gene expression vector, 0.01 µg of RTP1S vector, 0.01 µg firefly luciferase vector pGL4.29 (Promega) containing cAMP response element promoter, and 0.005 µg of Renilla luciferase vector pGL4.74 (Promega) containing thymidine kinase promoter were dissolved to prepare a gene solution (for one well). HEK293T cells were seeded at 100 µL each in a 96-well plate (Biocoat, Coming) at the number of cells reaching confluence after 24 hours, and a gene solution was added to each well by the lipofection method according to the usage of Lipofectamine 3000 to introduce genes into the cells, and the cells were cultured at 37° C. in a 5% carbon dioxide atmosphere for 24 hours.
After removing the culture medium, the resultant was prepared with CD293 (gibco) medium ([…] added) so as to have a concentration for measuring the aroma substance to be tested, 50 µL of which was added each and stimulated for 3 hours, and then luciferase activity was measured according to the method of using the Dual-Luciferase Reporter Assay System (Promega). The response intensity of the olfactory receptor polypeptide was expressed as a Fold Increase value obtained by dividing the luciferase activity produced by stimulating the aroma substance by the luciferase activity produced in the test system containing no aroma substance.
p-Cresol at 100 µM was mixed with various concentrations of 1-oxacycloheptadecan-7-en-2-one, 1-oxacycloheptadecan-8-en-2-one, isoambrettolide, pentalide, muscone, civetone, 8-2-decenolactone, cinnamic aldehyde, […], sclareolide, and ethyl maltol, and receptor responses were measured in cells expressing OR9Q2. The ratio of the Fold Increase value in the test in which each compound was mixed was calculated, where the Fold Increase value in the test in none of these compounds was mixed was set to 100. FIGS. 1 to 11 present the results.
(A reporter such as luciferase makes a cellular process visible.)

Experiment [1] can be described thus: Sensory evaluation of p-cresol odor masking in p-cresol-containing citrus-flavored beverage. As to conditions: for p-Cresol Odor Intensity: beverage with 50 ppb p-cresol, average score of 7 panelists, scale 0-4; for concentration at which the compound masks the p-cresol odor and does not affect the citrus flavor, lower limit / concentration at which the compound masks the p-cresol odor and does not affect the citrus flavor, upper limit: citrus-flavored beverage with 50 ppb p-cresol. As for the experimental part: To 2 g of lemon flavor obtained by making lemon oil into an essence, purified water was added to adjust the total amount to 1000 ml. To this citrus-flavored beverage, p-cresol adjusted to a concentration of 1% by mass with 95% ethanol was added to 50 ppb in the citrus-flavored beverage. To this p-cresol-containing citrus-flavored beverage, 1-oxacycloheptadecan-7-en-2-one was added at the concentrations presented in Table 1 to confirm the p-cresol odor intensity (masking effect) and the influence on the citrus flavor of each sample.
For the test, seven skilled panelists were selected to perform sensory evaluation. The p-cresol odor intensity of the p-cresol-containing citrus-flavored beverage without added l-oxacycloheptadecan-7-en-2-one was determined as “Rating: 4,” and the p-cresol odor intensity of the p-cresol-free citrus-flavored beverage was determined as “Rating: 0,” and the p-cresol odor intensity (masking effect) of each sample was relatively evaluated according to the following evaluation criteria.
In addition, the influence of the citrus-flavored beverage on the citrus flavor was evaluated absolutely according to the following evaluation criteria for the presence or absence of off- flavor other than p-cresol odor and citrus flavor (Off-Flavor Intensity).
The results are as in Table 1, presenting the average score of the evaluation results for each panelist.

Molecules are shown by their SMILES. Where only a bound is given, the exact number is not on record here.

Take `O=C1CCCCCCC/C=C\CCCCCCC1` [Civetone, civetone]: at olfactory receptor OR9Q2, the “effect of suppressing the response of OR9Q2 to p-cresol” value (“effect … to p-cresol” for short) is on record as “suppressing the response of OR9Q2 to p-cresol in a concentration-dependent manner”. The “p-Cresol Odor Intensity” value in experiment [1] (0.001 ppt added) is recorded as 3.7 points; in experiment [1] (0.01 ppt added) it was 2.7 points; in experiment [1] (0.1 ppt added) it was 2.3 points; in experiment [1] (1 ppb added), 1.0 points; in experiment [1] (1 ppt added) it was 1.9 points; in experiment [1] (10 ppb added), 0.9 points. Besides, the “p-Cresol Odor Intensity” value in experiment [1] (10 ppt added) amounted to 1.6 points; in experiment [1] (100 ppb added), 0.4 points; in experiment [1] (100 ppt added) it was 1.1 points. Further, the “concentration at which the compound masks the p-cresol odor and does not affect the citrus flavor, lower limit” value in experiment [1] is recorded as at least 0.01 ppt. Also, in experiment [1], the “concentration at which the compound masks the p-cresol odor and does not affect the citrus flavor, upper limit” value is on record as at most 1 ppb.
With `CCc1occc(=O)c1O` [Ethyl Maltol, ethyl maltol], the “effect … to p-cresol” value on olfactory receptor OR9Q2 is given as “suppressing the response of OR9Q2 to p-cresol in a concentration-dependent manner”. For the same compound, the “p-Cresol Odor Intensity” value in experiment [1] (1 ppb added) was determined as 2.3 points; in experiment [1] (1 ppm added), 1.4 points; in experiment [1] (10 ppb added) it was 2.0 points; in experiment [1] (10 ppm added), 1.3 points; in experiment [1] (10 ppt added), 3.7 points; in experiment [1] (100 ppb added), 1.6 points. The “p-Cresol Odor Intensity” value was 0.4 points in experiment [1] (100 ppm added) and 2.7 points in experiment [1] (100 ppt added). For the same compound, the “concentration at which the compound masks the p-cresol odor and does not affect the citrus flavor, lower limit” value in experiment [1] is listed as at least 100 ppt. Further, the “concentration at which the compound masks the p-cresol odor and does not affect the citrus flavor, upper limit” value in experiment [1] was at most 10 ppm.
As for `C[C@@H]1CCCCCCCCCCCCC(=O)C1` [Muscone, muscone], the “effect … to p-cresol” value at olfactory receptor OR9Q2 was “suppressing the response of OR9Q2 to p-cresol in a concentration-dependent manner”. In addition, the “p-Cresol Odor Intensity” value in experiment [1] (0.001 ppt added) is listed as 3.7 points; in experiment [1] (0.01 ppt added), 2.7 points; in experiment [1] (0.1 ppt added) it was 2.4 points; in experiment [1] (1 ppb added), 0.9 points; in experiment [1] (1 ppt added) it was 2.1 points; in experiment [1] (10 ppb added), 0.4 points. Moreover, the “p-Cresol Odor Intensity” value stood at 1.9 points in experiment [1] (10 ppt added), 0.3 points in experiment [1] (100 ppb added) and 1.7 points in experiment [1] (100 ppt added). The “concentration at which the compound masks the p-cresol odor and does not affect the citrus flavor, lower limit” value in experiment [1] is at least 0.01 ppt. The “concentration at which the compound masks the p-cresol odor and does not affect the citrus flavor, upper limit” value in experiment [1] is recorded as at most 1 ppb.
Consider `CC1(C)CCC[C@]2(C)[C@H]3CC(=O)O[C@]3(C)CC[C@@H]12` [Sclareolide, sclareolide], for which, at olfactory receptor OR9Q2, the “effect … to p-cresol” value is listed as “suppressing the response of OR9Q2 to p-cresol in a concentration-dependent manner”. In addition, the “p-Cresol Odor Intensity” value in experiment [1] (1 ppb added) is 2.1 points; in experiment [1] (1 ppm added), 1.0 points; in experiment [1] (10 ppb added), 1.9 points; in experiment [1] (10 ppm added), 0.4 points; in experiment [1] (10 ppt added), 3.6 points; in experiment [1] (100 ppb added), 1.1 points. Moreover, the “p-Cresol Odor Intensity” value in experiment [1] (100 ppt added) was determined as 2.6 points. For the same compound, the “concentration at which the compound masks the p-cresol odor and does not affect the citrus flavor, lower limit” value in experiment [1] is given as at least 100 ppt. The “concentration at which the compound masks the p-cresol odor and does not affect the citrus flavor, upper limit” value in experiment [1] is at most 1 ppm.
Take `C=C1CC[C@H]2O[C@]2(C)CC[C@@H]2[C@@H]1CC2(C)C` [β-caryophyllene Oxide, β-caryophyllene oxide]: the “effect … to p-cresol” value on olfactory receptor OR9Q2 is on record as “suppressing the response of OR9Q2 to p-cresol in a concentration-dependent manner”. Moreover, the “p-Cresol Odor Intensity” value in experiment [1] (1 ppb added) was 2.1 points; in experiment [1] (1 ppm added), 1.0 points; in experiment [1] (10 ppb added) it was 1.7 points; in experiment [1] (10 ppm added), 1.0 points; in experiment [1] (10 ppt added), 3.9 points; in experiment [1] (100 ppb added) it was 1.6 points. Besides, the “p-Cresol Odor Intensity” value came to 0.4 points in experiment [1] (100 ppm added) and 2.6 points in experiment [1] (100 ppt added). In addition, in experiment [1], the “concentration at which the compound masks the p-cresol odor and does not affect the citrus flavor, lower limit” value is listed as at least 100 ppt. For the same compound, the “concentration at which the compound masks the p-cresol odor and does not affect the citrus flavor, upper limit” value in experiment [1] is listed as at most 1 ppm.
Regarding `CCCCCC1CC=CC(=O)O1` (stereo not shown) [δ-2-Decenolactone, δ-2-decenolactone], the “effect … to p-cresol” value at olfactory receptor OR9Q2 is given as “suppressing the response of OR9Q2 to p-cresol in a concentration-dependent manner”. In addition, the “p-Cresol Odor Intensity” value in experiment [1] (1 ppb added) turned out to be 2.3 points; in experiment [1] (1 ppm added), 1.3 points; in experiment [1] (1 ppt added) it was 3.9 points; in experiment [1] (10 ppb added) it was 2.0 points; in experiment [1] (10 ppm added), 0.7 points; in experiment [1] (10 ppt added), 2.7 points. In addition, the “p-Cresol Odor Intensity” value in experiment [1] (100 ppb added) is recorded as 1.6 points; in experiment [1] (100 ppt added), 2.4 points. The “concentration at which the compound masks the p-cresol odor and does not affect the citrus flavor, lower limit” value in experiment [1] is listed as at least 10 ppt. The “concentration at which the compound masks the p-cresol odor and does not affect the citrus flavor, upper limit” value in experiment [1] is on record as at most 100 ppb.
